This note sets out measurements from patent US12280072B2, “Oligosaccharide compound for inhibiting intrinsic coagulation factor X-enzyme complex, and preparation method therefor and uses thereof” (Jiuzhitang Co., Ltd., priority 2017, dated 2025).

What all share (format): biochemical
In one assay the target is T1, FXa (Homo sapiens).
T1 construct: 8 μg/mL FXa solution; purchased
Description: AT-dependent Xa inhibitory activity assay. As to conditions: in presence of AT; read-out: Drug concentration required to inhibit 50% of coagulation factor activity (IC50, ng/mL) Xa (AT). The procedure:
AT-dependent Xa inhibitory activity assay: Heparin […] kit was used for detection. To a 96-well plate, 30 μL of sample, control solution or Tris-HCl buffer (negative control) was added, then 30 μL of 1 IU/mL AT solution was added, mixed well and incubated at 37° C. for 1 min; and than 30 μL of 8 μg/mL FXa solution was added, mixed well and incubated at 37° C. for 1 min, then 30 μL of pre-warmed 1.25 mM Xa chromogenic substrate SXa-11 was added. OD405 was detected by a microplate reader.
(§1) Data processing: The average value of OD405 detected by the duplicated well was used as the detection value of the test sample and the reference of each concentration, and the slope of the linear fit between the detected value to the time value (the change rate of the absorbance value OD405/min) indicated enzymatic activity of coagulation factor. Taking the clotting factor activity of the negative control well as 100%, coagulation factor activity (percentage) in the presence of the test sample was calculated. The coagulation factor activity in the presence of the test sample was plotted against the concentration of the test sample, and fitted according to the following formula, to calculate the IC50 value: B=(IC50)^n/{(IC50)^n+[I]^n}
(§2) in the formula, B is the coagulation factor activity (percentage) in the presence of the test sample, [I] is the concentration of the test sample, IC50 is the half inhibitory concentration (concentration of the test sample required to inhibit 50% of the activity), and n is the Hill coefficient. • (4) Effect on surface activation and platelet activity: […]

In the next assay the target is T2, intrinsic factor Xase (Homo sapiens, UniProt P00740).
T2 construct: 60 nM FIXa; purchased
Description: Xase inhibitory activity assay. Particulars: read-out: Drug concentration required to inhibit 50% of coagulation factor activity (IC50, ng/mL) Xase (converted). The procedure:
Xase inhibitory activity assay: Detection was performed according to kit instructions and literature methods by combining the Factor VIII and […]. Specifically, to each well of a 96-well plate, 30 μL of test solution, control solution, or Tris-HCl buffer (negative control) was added, and 30 μl of FVIII (2 IU/ml), 30 μl of R2 (60 nM FIXa, containing FIIa, PC/PS, Ca^2+) were sequentially added, mixed by shaking the plate, incubated at 37° C. for 2 min; and then 30 μL of R1 (50 nM FX, containing direct thrombin inhibitor) was added, mixed by shaking the plate, incubated at 37° C. for 1 min; and then 30 μL of R3 (FXa chromogenic substrate SXa-11, about 8.4 mM) was added. The absorbance at 405 nm (OD405) was detected with a microplate reader, continuously measuring for 7.5 min at a interval of 30 s. The Xase activity and IC50 value of Xase inhibition of the test sample were calculated based on the OD405 change value.
as §1, §2

Assay [1] deals with human-controlled plasma. Kind of assay: Anticoagulant activity assay: PT clotting time. The procedure:
(§3) 8.2 Methods • (1) Preparation of sample solution: Oligosaccharide compounds A1˜A8, B1˜B11 and oligosaccharide mixtures C1, D1, D2 were all dissolved in Tris-HCl buffer and diluted to the desired series of solubility. • (2) Anticoagulant activity assay: 90 μL of human-controlled plasma was added to the sample or 10 μL of the control solution, and then the clotting time (APTT and PT) was detected by the MC-4000 coagulometer according to the method described in the APTT and PT kit instructions. • (3) Coagulation factor inhibitory activity analysis: […]

The subject of a further assay is plasma. Kind of assay: TT (thrombin time) clotting time.
The next assay deals with T3, FIIa (Homo sapiens).
T3 construct: antithrombin (i.e., active coagulation factor IIa); purchased
Description: AT-dependent IIa inhibitory activity assay. As to conditions: in presence of AT; read-out: Drug concentration required to inhibit 50% of coagulation factor activity (IC50, ng/mL) Ha (AT). Here is the method:
AT-dependent IIa inhibitory activity assay: Heparin Anti-FIIa kit was used for detection. To a 96-well plate, 30 μL of sample, control solution or Tris-HCl buffer (negative control) was added, and then 30 μL of 1 IU/mL AT solution was added, mixed well by shaking the plate and incubated at 37° C. for 2 min; 30 μL of 24 IU/mL FIIa solution was added, mixed well by shaking the plate and incubated for 2 min at 37° C., and then 30 μL of pre-warmed 1.25 mM FIIa specific chromogenic substrate CS-01 (38) was added, mixed well by shaking the plate. The OD405 was detected by a microplate reader and the IC50 value of FIIa inhibition of each sample was calculated.
as §1, §2

Assay [2] concerns human-controlled plasma. Kind of assay: Anticoagulant activity assay: APTT clotting time. The procedure: as §3

T2 sequence (P00740 47-191 limits assumed): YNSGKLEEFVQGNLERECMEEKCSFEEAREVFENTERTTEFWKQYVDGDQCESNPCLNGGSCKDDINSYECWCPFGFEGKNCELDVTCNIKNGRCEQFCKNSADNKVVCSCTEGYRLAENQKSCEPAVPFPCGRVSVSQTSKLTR
T2 sequence (P00740 227-461 limits assumed): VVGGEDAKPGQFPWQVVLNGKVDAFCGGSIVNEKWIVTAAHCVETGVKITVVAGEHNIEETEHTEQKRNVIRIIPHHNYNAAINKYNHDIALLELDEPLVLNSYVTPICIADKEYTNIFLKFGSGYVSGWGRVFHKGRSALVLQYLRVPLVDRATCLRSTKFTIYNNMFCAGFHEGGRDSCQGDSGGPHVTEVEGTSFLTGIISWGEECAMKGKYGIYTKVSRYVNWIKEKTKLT
T1 sequence (P01008 33-464): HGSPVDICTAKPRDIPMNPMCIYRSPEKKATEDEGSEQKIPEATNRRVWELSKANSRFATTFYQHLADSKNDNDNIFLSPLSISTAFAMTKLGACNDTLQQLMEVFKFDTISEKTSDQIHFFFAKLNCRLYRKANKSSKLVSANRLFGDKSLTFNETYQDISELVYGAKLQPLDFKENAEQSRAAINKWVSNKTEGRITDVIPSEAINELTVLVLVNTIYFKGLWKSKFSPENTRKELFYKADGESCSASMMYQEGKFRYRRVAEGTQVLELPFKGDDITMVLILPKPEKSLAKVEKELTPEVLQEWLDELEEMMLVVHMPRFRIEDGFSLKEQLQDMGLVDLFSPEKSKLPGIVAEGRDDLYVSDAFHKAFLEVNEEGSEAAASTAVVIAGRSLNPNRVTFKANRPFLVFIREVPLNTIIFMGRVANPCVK
T3 sequence (P01008 33-464): as above

Take `COCC(NC(C)=O)C(OC1OC(C(=O)OC)C(OC2OC(COS(=O)(=O)O)C(OS(=O)(=O)O)C(OC3OC(C(=O)OC)C(OC4OC(COS(=O)(=O)O)C(OS(=O)(=O)O)C(OC5OC(C(=O)OC)=CC(OC6OC(C)C(OS(=O)(=O)O)C(O)C6OS(=O)(=O)O)C5O)C4NC(C)=O)C(OC4OC(C)C(OS(=O)(=O)O)C(O)C4OS(=O)(=O)O)C3O)C2NC(C)=O)C(OC2OC(C)C(OS(=O)(=O)O)C(O)C2OS(=O)(=O)O)C1O)C(OS(=O)(=O)O)C(O)COS(=O)(=O)O` [Compound A8, L-Fuc2S4S-(α1,3)-[6-Methyl-ΔUA-(α1,3)]-{D-GaNAc4S6S-(β1,4)-[L-Fuc2S4S-(α1,3)-]-D-6-Methyl-GlcA-(β1,3)}2-D-1-Methyl-Gal-NAc4S6S-ol]: the IC50 on FXa (Homo sapiens) was above 1.93 µM; at intrinsic factor Xase it was 0.0272 µM; at FIIa (Homo sapiens), above 1.93 µM. For the same compound, in the assay on human-controlled plasma [1], the “Drug concentration required for multiplication of coagulation time (μg/mL) PT” value (from here on “Drug concentration required … (μg/mL) PT”) is reported as “# (>128 μg/mL)”. Moreover, the “Drug concentration required for multiplication of coagulation time (μg/mL) TT” value (“Drug concentration required … (μg/mL) TT” for short) in the assay on plasma was “# (>128 μg/mL)”. Besides, the “Drug concentration required for multiplication of coagulation time (μg/mL) APTT” value (“Drug concentration required … (μg/mL) APTT” for short) in the assay with human-controlled plasma [2] turned out to be 8.2 µg/mL.

Regarding `CC(=O)NC1C(OC2C(C(=O)O)OC(OC3C(NC(C)=O)C(OC4C(C(=O)O)OC(OC5C(NC(C)=O)C(OC6C(C(=O)O)OC(O)C(O)C6OC6OC(C)C(OS(=O)(=O)O)C(OS(=O)(=O)O)C6O)OC(COS(=O)(=O)O)C5OS(=O)(=O)O)C(O)C4OC4OC(C)C(OS(=O)(=O)O)C(OS(=O)(=O)O)C4O)OC(COS(=O)(=O)O)C3OS(=O)(=O)O)C(O)C2OC2OC(C)C(OS(=O)(=O)O)C(OS(=O)(=O)O)C2O)OC(COS(=O)(=O)O)C(OS(=O)(=O)O)C1OC1OC(C(=O)O)=CC(OC2OC(C)C(OS(=O)(=O)O)C(OS(=O)(=O)O)C2O)C1O` [Compound B8, L-Fuc3S4S-(α1,3)-L-ΔUA-(α1,3)-{D-GaNAc4S6S-(β1,4)-[L-Fuc3S4S-(α1,3)]-D-GlcA-(β1,4)}˜-D-GalNAc4S6S-(β1,4)-[L-Fuc3S4S-(α1,3)]-D-GlcA], the IC50 at FXa (Homo sapiens) was above 1.66 µM; at intrinsic factor Xase, 0.0098 µM; at FIIa (Homo sapiens) it was above 1.66 µM. For the same compound, in the assay with human-controlled plasma [1], the “Drug concentration required … (μg/mL) PT” value is recorded as “# (>128 μg/mL)”. Moreover, the “Drug concentration required … (μg/mL) TT” value in the assay with plasma is “# (>128 μg/mL)”. For the same compound, the “Drug concentration required … (μg/mL) APTT” value with human-controlled plasma [2] is 5.8 µg/mL.

For the compound `COC(=O)C1=CC(OC2OC(C)C(OS(=O)(=O)O)C(O)C2OS(=O)(=O)O)C(O)C(OC2C(NC(C)=O)C(OC3C(C(=O)OC)OC(OC4C(NC(C)=O)C(OC5C(C(=O)OC)OC(OC(C(CO)NC(C)=O)C(OS(=O)(=O)O)C(O)COS(=O)(=O)O)C(O)C5OC5OC(C)C(OS(=O)(=O)O)C(O)C5OS(=O)(=O)O)OC(COS(=O)(=O)O)C4OS(=O)(=O)O)C(O)C3OC3OC(C)C(OS(=O)(=O)O)C(O)C3OS(=O)(=O)O)OC(COS(=O)(=O)O)C2OS(=O)(=O)O)O1` [Compound A6, L-Fuc2S4S-(α1,3)-[6-Methyl-ΔUA-(α1,3)]-{D-GaNAc4S6S-(β1,4)-[L-Fuc2S4S-(α1,3)-]-D-6-Methyl-GlcA-(β1,4)}2-D-GalNAc4S6S-ol], the IC50 is above 1.94 µM on FXa (Homo sapiens), 0.0265 µM at intrinsic factor Xase and above 1.94 µM on FIIa (Homo sapiens). Further, the “Drug concentration required … (μg/mL) PT” value with human-controlled plasma [1] was “# (>128 μg/mL)”. In the assay with plasma, the “Drug concentration required … (μg/mL) TT” value is recorded as “# (>128 μg/mL)”. For the same compound, the “Drug concentration required … (μg/mL) APTT” value with human-controlled plasma [2] was found to be 7.5 µg/mL.

Turning to `CC(=O)NC(CO)C(OC1OC(C(=O)O)C(OC2OC(COS(=O)(=O)O)C(OS(=O)(=O)O)C(OC3OC(C(=O)O)C(OC4OC(COS(=O)(=O)O)C(OS(=O)(=O)O)C(OC5OC(C(=O)O)C(OC6OC(COS(=O)(=O)O)C(OS(=O)(=O)O)C(OC7OC(C(=O)O)=CC(OC8OC(C)C(OS(=O)(=O)O)C(O)C8OS(=O)(=O)O)C7O)C6NC(C)=O)C(OC6OC(C)C(OS(=O)(=O)O)C(O)C6OS(=O)(=O)O)C5O)C4NC(C)=O)C(OC4OC(C)C(OS(=O)(=O)O)C(O)C4OS(=O)(=O)O)C3O)C2NC(C)=O)C(OC2OC(C)C(OS(=O)(=O)O)C(O)C2OS(=O)(=O)O)C1O)C(OS(=O)(=O)O)C(O)COS(=O)(=O)O` [Compound A3, L-Fuc2S4S-(α1,3)-ΔUA-(α1,3)-{D-GaNAc4S6S-(β1,4)-[L-Fuc2S4S-(α1,3)]-D-GlcA-(β1,3)}n+1-D-GalNAc4S6S-ol], the IC50 at FXa (Homo sapiens) is above 1.48 µM; on intrinsic factor Xase it was 0.0118 µM; on FIIa (Homo sapiens), above 1.48 µM. Also, the “Drug concentration required … (μg/mL) PT” value in the assay on human-controlled plasma [1] was “# (>128 μg/mL)”. Also, the “Drug concentration required … (μg/mL) TT” value in the assay with plasma is “# (>128 μg/mL)”. In addition, in the assay on human-controlled plasma [2], the “Drug concentration required … (μg/mL) APTT” value turned out to be 6.8 µg/mL.

Turning to `CCOC(=O)c1ccc(NCC(O)C(OC2OC(C)C(OS(=O)(=O)O)C(O)C2OS(=O)(=O)O)C(OC2OC(COS(=O)(=O)O)C(OS(=O)(=O)O)C(OC3OC(C(=O)O)C(OC4OC(COS(=O)(=O)O)C(OS(=O)(=O)O)C(OC5OC(C(=O)O)C(OC6OC(COS(=O)(=O)O)C(OS(=O)(=O)O)C(OC7OC(C(=O)O)=CC(OC8OC(C)C(OS(=O)(=O)O)C(O)C8OS(=O)(=O)O)C7O)C6NC(C)=O)C(OC6OC(C)C(OS(=O)(=O)O)C(O)C6OS(=O)(=O)O)C5O)C4NC(C)=O)C(OC4OC(C)C(OS(=O)(=O)O)C(O)C4OS(=O)(=O)O)C3O)C2NC(C)=O)C(O)C(=O)O)cc1` [Compound B11, L-Fuc2S4S-(α1,3)-L-ΔUA-(α1,3)-{D-GalNAc4S6S-(β1,4)-[L-Fuc2S4S-(α1,3)]-D-GlcA-(β1,3)}2-D-GalNAc4S6S-(β1,4)-[L-Fuc2S4S-(α1,3)]-D-1-deoxy-1-amino-GlcA-ol-N-4-benzoic ethyl ester], the IC50 at FXa (Homo sapiens) was above 1.58 µM; at intrinsic factor Xase, 0.00956 µM; at FIIa (Homo sapiens) it was above 1.58 µM. For the same compound, in the assay with human-controlled plasma [1], the “Drug concentration required … (μg/mL) PT” value is recorded as “# (>128 μg/mL)”. In addition, the “Drug concentration required … (μg/mL) TT” value in the assay with plasma is reported as “# (>128 μg/mL)”. For the same compound, in the assay with human-controlled plasma [2], the “Drug concentration required … (μg/mL) APTT” value was 6.3 µg/mL.

On to `CC(=O)NC1C(OC2C(C(=O)O)OC(OC3C(NC(C)=O)C(OC(C(O)C(=O)O)C(OC4OC(C)C(OS(=O)(=O)O)C(OS(=O)(=O)O)C4O)C(O)CO)OC(COS(=O)(=O)O)C3OS(=O)(=O)O)C(O)C2OC2OC(C)C(OS(=O)(=O)O)C(OS(=O)(=O)O)C2O)OC(COS(=O)(=O)O)C(OS(=O)(=O)O)C1OC1OC(C(=O)O)=CC(OC2OC(C)C(OS(=O)(=O)O)C(OS(=O)(=O)O)C2O)C1O` [Compound B2, L-Fuc3S4S-(α1,3)-L-ΔUA-(α1,3)-{D-GalNAc4S6S-(β1,4)-[L-Fuc3S4S-(α1,3)]-D-GlcA-(β1,3)}˜-D-GalNAc4S6S-(β1,4)-[L-Fuc3S4S-(α1,3)]-D-GlcA-ol], for which the IC50 on FXa (Homo sapiens) is above 2.3 µM; at intrinsic factor Xase, 0.0295 µM; at FIIa (Homo sapiens), above 2.3 µM. Besides, in the assay with human-controlled plasma [1], the “Drug concentration required … (μg/mL) PT” value is given as “# (>128 μg/mL)”. Further, the “Drug concentration required … (μg/mL) TT” value in the assay with plasma is given as “# (>128 μg/mL)”. For the same compound, the “Drug concentration required … (μg/mL) APTT” value in the assay with human-controlled plasma [2] was 7.5 µg/mL.
